Test results from patent publication US11547842B2, “Methods for cancer treatment” (The Board of Trustees of the Leland Stanford Junior …, priority 2013, dated 2023).
Read-outs that look alike come from different tables or passages of the source.

Tests used:
mycosis fungoides [1] = experiment: Therapy history of patient 3 before SD-101 (clinical response, tolerability)
mycosis fungoides [2] = conditions: human, in vivo

Row | Compound | reason the therapy was stopped (toxicity) (mycosis fungoides [1]) | response to therapy (mycosis fungoides [1]; Zolinza with 12 Gy TSEBT, Targretin 300 mg daily, SGN-35 clinical trial) | reason the therapy was stopped (toxicity) (mycosis fungoides [2])
1 | C=C(c1ccc(C(=O)O)cc1)c1cc2c(cc1C)C(C)(C)CCC2(C)C [Targretin] | hypertriglyceridemia | partial response in the skin | –
2 | SGN-35: agent of the SGN-35 clinical trial in which patient 3 participated | – | – | too much toxicity
